Tests used:
HCT-116 cells [1] = experiment: Anti-proliferative activity, SRB assay, HCT-116; assay type: cell-based, human; details: for IC50: SRB assay, 72 h exposure, mean ± SD of three separate experiments; for HCT-116 SI (selectivity index): ratio of IC50 for normal cells (WI-38) to IC50 for HCT-116
Description: (§1) Several of these derivatives were reported as acting as competitive inhibitors of different tyrosine kinases, with potent cytotoxic activity against various cell lines[58]^,[59]. […] Thus, in this study a novel series of benzoxazole-benzamide conjugates was initially evaluated for their potential anti-cancer activity against colon cancer cell line (HCT-116), breast cancer cell line (MCF-7) and normal human fibroblasts (WI-38), using the Sulforhodamine B colorimetric (SRB) assay.
(§2) 2.1. Anti-proliferative activity against HCT-116 and MCF-7 human cancer cells lines.
(§3) The sulforhodamine B (SRB) assays were performed according to Skehan et al..
(§4) Briefly, exponentially growing cells were trypsinized, counted and seeded at the appropriate densities (5000 cells/100 μL/ well) into 96-well microtiter plates. Cells were incubated in a humidified atmosphere at 37 °C for 24 h. Then, the cells were exposed to the tested compounds at the desired concentrations (0.01, 0.1, 1, 10, and 100 μM) or to 1% dimethyl sulfoxide (DMSO) for 72 h. At the end of the treatment period, the media were removed, and the cells were fixed with 10% trichloroacetic acid at 4 °C for 1 h. Following, the cells were washed with tap water four times and incubated with SRB 0.4% for 30 min. Excess dye was removed by washing repeatedly with 1% (vol/vol) acetic acid. The protein-bound dye was dissolved in 10 mM Tris base solution for (optical density) OD determination at 510 nm using a Spectra Max plus Microplate Reader (Molecular Devices, CA). Cell viability was expressed relative to the untreated control cells. […]

WI-38 cells = experiment: Cytotoxicity against normal fibroblasts, SRB assay, WI-38; assay type: cell-based; details: normal human fibroblasts, 72 h, mean ± SD of three separate experiments
Description: as §1, §2, §3, §4

HCT-116 cells [2] = experiment: Annexin V-FITC/PI apoptosis assay, HCT-116; assay type: cell-based, human; details: for increase in total apoptosis compared to the control: HCT-116; for %Apoptosis %Early / %Apoptosis %Late / %Necrosis: HCT-116, 48 h incubation; for %Apoptosis %Early: control 1.1; for %Apoptosis %Late: control 1.57; for %Necrosis: control 1.85
Description: (§5) 2.4. Annexin V-FITC/PI apoptosis assay.
(§6) For this study, annexin V-FITC / PI apoptosis detection kit was used; HCT -116 and MCF-7 cells were stained with annexin V fluorescein isothiocyanate (FITC) and propidium iodide (PI) counter-stained.1 x 10^5 HCT-116 cells were 48 h incubated with compound 1 or 11, trypsinized, washed with phosphate-buffered saline (PBS), stained in the dark at 37 °C for 15 min utes.
(§7) Finally, the cells analyzed with a cytometer of FACS Caliber flow.

MCF-7 cells = experiment: Annexin V-FITC/PI apoptosis assay, MCF-7; assay type: cell-based, human; details: for %Apoptosis %Early: control 0.47; for %Apoptosis %Late: control 1.34; for %Necrosis: control 1.6; for %Apoptosis %Total: control 3.41
Description: as §5, §6, §7

Bcl-2 = experiment: Western blot of Bcl-2 expression in HCT-116; assay type: cell-based, human; details: HCT-116, Western blot, normalised to β-actin
Description: (§8) It is well known that the anti-apoptotic proteins Bcl-2 and Bcl-xL are mainly overexpressed in various types of cancer, causing survival of cancer cells and/or drug resistance. Therefore, inhibition of these proteins expression leads to cancer cell death and has been used as a strategy for anticancer drug development. In this study, the impact of compounds 1 and 11 on Bcl-2 and Bcl-xL expression in HCT-116 and MCF-7 cancer cell lines was examined using Western blot analysis and all the data were normalised to β-actin (Figure 9).
(§9) 2.5. Impact of compounds 1 and 11 on the level of anti-apoptotic markers (Bcl-2, and Bcl-xL).
(§10) Gel electrophoresis and immuno-blot analysis of proteins (Western Blot) method was used to examine the effect of compounds 1 and 11 on the level of anti-apoptotic markers (Bcl-2, and Bcl-xL). […]
(§11) The cells were then immediately frozen at −20 °C for 1 h for further lysis and collected by cell scraper and sonicated 2×10s. Total protein concentrations were determined colorimetrically using Bradford method before proceeding to the western blotting. […] Briefly, the membranes were incubated for 1 min with a mixture of equal volumes from ECL solution A and ECL solution B. The chemiluminescent signals were captured using a CCD camera-based imager (Chemi Doc imager, Biorad, USA), and the band intensities were then measured with β-actin as an internal reference protein. […]

Bcl-xL = experiment: Western blot of Bcl-xL expression in MCF-7; assay type: cell-based, human; details: MCF-7, Western blot, normalised to β-actin
Description: as §8, §9, §10, §11

IC50 (HCT-116 cells [1]; Homo sapiens, HCT-116, 72 h) [µM]	IC50 (HCT-116 cells [1]) [µM]	SMILES	HCT-116 SI (selectivity index) (HCT-116 cells [1])	IC50 (WI-38 cells) [µM]	increase in total apoptosis compared to the control (HCT-116 cells [2])	%Apoptosis %Early (HCT-116 cells [2]) [%]	%Apoptosis %Late (HCT-116 cells [2]) [%]	%Necrosis (HCT-116 cells [2]) [%]	total increase in apoptosis compared to the control (MCF-7 cells)	%Apoptosis %Early (MCF-7 cells) [%]	%Apoptosis %Late (MCF-7 cells) [%]	%Necrosis (MCF-7 cells) [%]	%Apoptosis %Total (MCF-7 cells) [%]	Bcl-2 expression (Bcl-2)	Bcl-xL expression (Bcl-xL)
12.2 ± 0.007	–	O=C(CSc1nc2cc(Cl)ccc2o1)Nc1ccc(C(=O)Nc2ccc(Cl)cc2)cc1 [Compound 11]	8.5	103.5 ± 0.7	~3.9 fold	6.01	9.62	1.78	~5.0 fold	4.93	10.26	1.74	16.93	inhibited	inhibited
7.2 ± 0.01	7.8 ± 0.015	O=C(CSc1nc2ccccc2o1)Nc1ccc(C(=O)NC2CCCCC2)cc1 [Compound 1]	5.3	41.9 ± 0.27	approximately 3.4 fold	4.86	8.95	1.55	approximately 5.8 fold	6.02	12.17	1.59	19.78	inhibited	inhibited

From paper PMC9176662, “Design, synthesis, molecular modeling and biological evaluation of novel Benzoxazole-Benzamide conjugates via a 2-Thioacetamido linker as potential anti-proliferative agents, VEGFR-2 inhibitors and apoptotic inducers” (Journal of Enzyme Inhibition and Medicinal Chemistry, 2022)
